Assays:
[1] = tested on: barnyardgrass; test: Test A preemergence; assay type: in vivo, Echinochloa crus-galli; conditions: for Barnyardgrass plant response rating (0 to 100 scale, 0 is no effect, 100 is complete control): 125 g ai/ha; for Barnyardgrass plant response rating: 500 g ai/ha, 0 to 100 scale where 0 is no effect and 100 is complete control
Outline: (§1)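 Greenhouse pot test, loam/sand soil. Formulation: non-phytotoxic solvent mix plus surfactant. Pre: directed spray onto soil after sowing. Post: plants at 1–2 leaf, 2–10 cm. Rated visually vs untreated controls at ~10 d, 0 (no effect) to 100 (complete control).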

[2] = tested on: large (Lg) crabgrass; test: Test A preemergence; assay type: in vivo, Digitaria sanguinalis; conditions: for Crabgrass, Large plant response rating (0 to 100 scale): 125 g ai/ha; for Crabgrass, Large plant response rating: 500 g ai/ha, 0 to 100 scale where 0 is no effect and 100 is complete control
Outline: as §1

[3] = tested on: giant foxtail; test: Test A preemergence; assay type: in vivo, Setaria faberii; conditions: for Foxtail, Giant plant response rating (0 to 100 scale): 125 g ai/ha; for Foxtail, Giant plant response rating: 500 g ai/ha, 0 to 100 scale where 0 is no effect and 100 is complete control
Outline: as §1

[4] = tested on: morningglory; test: Test A preemergence; assay type: in vivo, Ipomoea spp.; conditions: for Morningglory plant response rating (0 to 100 scale): 125 g ai/ha; for Morningglory plant response rating: 500 g ai/ha, 0 to 100 scale where 0 is no effect and 100 is complete control
Outline: as §1

[5] = tested on: pigweed; test: Test A preemergence; assay type: in vivo, Amaranthus retroflexus; conditions: for Pigweed plant response rating (0 to 100 scale): 125 g ai/ha; for Pigweed plant response rating: 500 g ai/ha, 0 to 100 scale where 0 is no effect and 100 is complete control
Outline: as §1

[6] = tested on: velvetleaf; test: Test A preemergence; assay type: in vivo, Abutilon theophrasti; conditions: for Velvetleaf plant response rating (0 to 100 scale): 125 g ai/ha; for Velvetleaf plant response rating: 500 g ai/ha, 0 to 100 scale where 0 is no effect and 100 is complete control
Outline: as §1

[7] = tested on: wheat; test: Test A preemergence; assay type: in vivo, Triticum aestivum; conditions: for Wheat plant response rating (0 to 100 scale): 125 g ai/ha; for Wheat plant response rating: 500 g ai/ha, 0 to 100 scale where 0 is no effect and 100 is complete control
Outline: as §1

[8] = tested on: corn; test: Test A preemergence; assay type: in vivo, Zea mays; conditions: for Corn plant response rating (0 to 100 scale): 125 g ai/ha; for Corn plant response rating: 500 g ai/ha, 0 to 100 scale where 0 is no effect and 100 is complete control
Outline: as §1

[9] = tested on: barnyardgrass; test: Test A postemergence; assay type: in vivo, Echinochloa crus-galli; conditions: 0 to 100 scale where 0 is no effect and 100 is complete control; for Barnyardgrass plant response rating: 125 g ai/ha; for Plant response rating, Barnyardgrass: 500 g ai/ha
Outline: as §1

[10] = tested on: large (Lg) crabgrass; test: Test A postemergence; assay type: in vivo, Digitaria sanguinalis; conditions: 0 to 100 scale where 0 is no effect and 100 is complete control; for Crabgrass, Large plant response rating: 125 g ai/ha; for Plant response rating, Crabgrass, Large: 500 g ai/ha
Outline: as §1

[11] = tested on: giant foxtail; test: Test A postemergence; assay type: in vivo, Setaria faberii; conditions: 0 to 100 scale where 0 is no effect and 100 is complete control; for Foxtail, Giant plant response rating: 125 g ai/ha; for Plant response rating, Foxtail, Giant: 500 g ai/ha
Outline: as §1

[12] = tested on: morningglory; test: Test A postemergence; assay type: in vivo, Ipomoea spp.; conditions: 0 to 100 scale where 0 is no effect and 100 is complete control; for Morningglory plant response rating: 125 g ai/ha; for Plant response rating, Morningglory: 500 g ai/ha
Outline: as §1

[13] = tested on: pigweed; test: Test A postemergence; assay type: in vivo, Amaranthus retroflexus; conditions: 0 to 100 scale where 0 is no effect and 100 is complete control; for Pigweed plant response rating: 125 g ai/ha; for Plant response rating, Pigweed: 500 g ai/ha
Outline: as §1

[14] = tested on: velvetleaf; test: Test A postemergence; assay type: in vivo, Abutilon theophrasti; conditions: 0 to 100 scale where 0 is no effect and 100 is complete control; for Velvetleaf plant response rating: 125 g ai/ha; for Plant response rating, Velvetleaf: 500 g ai/ha
Outline: as §1

[15] = tested on: wheat; test: Test A postemergence; assay type: in vivo, Triticum aestivum; conditions: 0 to 100 scale where 0 is no effect and 100 is complete control; for Wheat plant response rating: 125 g ai/ha; for Plant response rating, Wheat: 500 g ai/ha
Outline: as §1

[16] = tested on: corn; test: Test A postemergence; assay type: in vivo, Zea mays; conditions: 0 to 100 scale where 0 is no effect and 100 is complete control; for Corn plant response rating: 125 g ai/ha; for Plant response rating, Corn: 500 g ai/ha
Outline: as §1

[17] = tested on: rice; test: Test B flooded paddy test; assay type: in vivo, Oryza sativa; conditions: Flood, 250 g ai/ha; 0 to 100 scale where 0 is no effect and 100 is complete control
Outline: (§2)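 Seedlings are raised to two leaves, flooded to a depth of 3 cm and dosed by adding the compound to the floodwater. Water level is kept constant, and plants are scored visually versus controls 13–15 days later (0 = no effect, 100 = complete control).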

[18] = tested on: sedge, umbrella; test: Test B flooded paddy test; assay type: in vivo, Cyperus difformis; conditions: Flood, 250 g ai/ha; 0 to 100 scale where 0 is no effect and 100 is complete control
Outline: as §2

[19] = tested on: Heteranthera limosa; test: Test B flooded paddy test; assay type: in vivo; conditions: Flood, 250 g ai/ha; 0 to 100 scale where 0 is no effect and 100 is complete control
Outline: as §2

[20] = tested on: barnyardgrass; test: Test B flooded paddy test; assay type: in vivo, Echinochloa crus-galli; conditions: Flood, 250 g ai/ha; 0 to 100 scale where 0 is no effect and 100 is complete control
Outline: as §2

[21] = tested on: rice; test: Test C flooded paddy test; assay type: in vivo, Oryza sativa; conditions: Flood, scale 0 to 100 (0 no effect, 100 complete control), 13 to 15 days
Outline: (§3)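 Visual injury ratings against untreated controls, taken 13 to 15 days after compound was added to paddy water standing 3 cm above the soil.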

[22] = tested on: sedge, umbrella; test: Test C flooded paddy test; assay type: in vivo, Cyperus difformis; conditions: Flood, scale 0 to 100 (0 no effect, 100 complete control), 13 to 15 days
From the text: At time of treatment, test pots were flooded to 3 cm above the soil surface, treated by application of test compounds directly to the paddy water, and then maintained at that water depth for the duration of the test. Treated plants and controls were maintained in a greenhouse for 13 to 15 days, after which time all species were compared to controls and visually evaluated. […] A dash (-) response means no test result.

[23] = tested on: ducksalad; test: Test C flooded paddy test; assay type: in vivo, Heteranthera limosa; conditions: Flood, scale 0 to 100 (0 no effect, 100 complete control), 13 to 15 days
Outline: as §3

[24] = tested on: barnyardgrass; test: Test C flooded paddy test; assay type: in vivo, Echinochloa crus-galli; conditions: Flood, scale 0 to 100 (0 no effect, 100 complete control), 13 to 15 days
Outline: as §3

## FC(F)c1cccc(Oc2ncc(Cl)cn2)c1-n1cc(I)cn1 [Compound 184]
[1]
  Barnyardgrass plant response rating (0 to 100 scale, 0 is no effect, 100 is complete control): 30
  Barnyardgrass plant response rating: 100
[2]
  Crabgrass, Large plant response rating (0 to 100 scale): 100
  Crabgrass, Large plant response rating: 100
[3]
  Foxtail, Giant plant response rating (0 to 100 scale): 100
  Foxtail, Giant plant response rating: 100
[4]
  Morningglory plant response rating (0 to 100 scale): 0
  Morningglory plant response rating: 90
[5]
  Pigweed plant response rating (0 to 100 scale): 100
  Pigweed plant response rating: 100
[6]
  Velvetleaf plant response rating (0 to 100 scale): 20
  Velvetleaf plant response rating: 60
[7]
  Wheat plant response rating (0 to 100 scale): 0
  Wheat plant response rating: 30
[8]
  Corn plant response rating (0 to 100 scale): 20
  Corn plant response rating: 20
[9]
  Barnyardgrass plant response rating: 60
  Plant response rating, Barnyardgrass: 90
[10]
  Crabgrass, Large plant response rating: 70
  Plant response rating, Crabgrass, Large: 80
[11]
  Foxtail, Giant plant response rating: 70
  Plant response rating, Foxtail, Giant: 80
[12]
  Morningglory plant response rating: 60
  Plant response rating, Morningglory: 90
[13]
  Pigweed plant response rating: 100
  Plant response rating, Pigweed: 100
[14]
  Velvetleaf plant response rating: 80
  Plant response rating, Velvetleaf: 90
[15]
  Wheat plant response rating: 30
  Plant response rating, Wheat: 90
[16]
  Corn plant response rating: 20
  Plant response rating, Corn: 70
[17]
  Plant response rating, Rice: 10
[18]
  Plant response rating, Sedge, Umbrella: 95
[19]
  Plant response rating, Ducksalad: 100
[20]
  Plant response rating, Barnyardgrass: 0
[21]; 31 g ai/ha
  Plant response rating, Rice: 0
[21]; 62 g ai/ha
  Plant response rating, Rice: 0
[21]; 125 g ai/ha
  Plant response rating, Rice: 0
[21]; 250 g ai/ha
  Plant response rating, Rice: 0
[22]; 31 g ai/ha
  Plant response rating, Sedge, Umbrella: 0
[22]; 62 g ai/ha
  Plant response rating, Sedge, Umbrella: 0
[22]; 125 g ai/ha
  Plant response rating, Sedge, Umbrella: 50
[22]; 250 g ai/ha
  Plant response rating, Sedge, Umbrella: 75
[23]; 31 g ai/ha
  Plant response rating, Ducksalad: 0
[23]; 62 g ai/ha
  Plant response rating, Ducksalad: 30
[23]; 125 g ai/ha
  Plant response rating, Ducksalad: 30
[23]; 250 g ai/ha
  Plant response rating, Ducksalad: 75
[24]; 31 g ai/ha
  Plant response rating, Barnyardgrass: 0
[24]; 62 g ai/ha
  Plant response rating, Barnyardgrass: 0
[24]; 125 g ai/ha
  Plant response rating, Barnyardgrass: 0
[24]; 250 g ai/ha
  Plant response rating, Barnyardgrass: 0

## COc1cnc(Oc2ccccc2-n2cc(Br)cn2)nc1 [Compound 234]
[1]
  Barnyardgrass plant response rating (0 to 100 scale, 0 is no effect, 100 is complete control): 20
  Barnyardgrass plant response rating: 100
[2]
  Crabgrass, Large plant response rating (0 to 100 scale): 90
  Crabgrass, Large plant response rating: 100
[3]
  Foxtail, Giant plant response rating (0 to 100 scale): 60
  Foxtail, Giant plant response rating: 90
[4]
  Morningglory plant response rating (0 to 100 scale): 0
  Morningglory plant response rating: 100
[5]
  Pigweed plant response rating (0 to 100 scale): 90
  Pigweed plant response rating: 100
[6]
  Velvetleaf plant response rating (0 to 100 scale): 40
  Velvetleaf plant response rating: 100
[7]
  Wheat plant response rating (0 to 100 scale): 0
  Wheat plant response rating: 0
[8]
  Corn plant response rating (0 to 100 scale): 0
  Corn plant response rating: 90
[9]
  Barnyardgrass plant response rating: 20
  Plant response rating, Barnyardgrass: 70
[10]
  Crabgrass, Large plant response rating: 20
  Plant response rating, Crabgrass, Large: 60
[11]
  Foxtail, Giant plant response rating: 30
  Plant response rating, Foxtail, Giant: 70
[12]
  Morningglory plant response rating: 40
  Plant response rating, Morningglory: 60
[13]
  Pigweed plant response rating: 100
  Plant response rating, Pigweed: 100
[14]
  Velvetleaf plant response rating: 70
  Plant response rating, Velvetleaf: 100
[15]
  Wheat plant response rating: 20
  Plant response rating, Wheat: 20
[16]
  Corn plant response rating: 20
  Plant response rating, Corn: 30
[17]
  Plant response rating, Rice: 20
[18]
  Plant response rating, Sedge, Umbrella: 90
[19]
  Plant response rating, Ducksalad: 90
[20]
  Plant response rating, Barnyardgrass: 20
[21]; 31 g ai/ha
  Plant response rating, Rice: 0
[21]; 62 g ai/ha
  Plant response rating, Rice: 0
[21]; 125 g ai/ha
  Plant response rating, Rice: 0
[21]; 250 g ai/ha
  Plant response rating, Rice: 0
[22]; 31 g ai/ha
  Plant response rating, Sedge, Umbrella: 0
[22]; 62 g ai/ha
  Plant response rating, Sedge, Umbrella: 0
[22]; 125 g ai/ha
  Plant response rating, Sedge, Umbrella: 0
[22]; 250 g ai/ha
  Plant response rating, Sedge, Umbrella: 40
[23]; 31 g ai/ha
  Plant response rating, Ducksalad: 0
[23]; 62 g ai/ha
  Plant response rating, Ducksalad: 0
[23]; 125 g ai/ha
  Plant response rating, Ducksalad: 0
[23]; 250 g ai/ha
  Plant response rating, Ducksalad: 30
[24]; 31 g ai/ha
  Plant response rating, Barnyardgrass: 0
[24]; 62 g ai/ha
  Plant response rating, Barnyardgrass: 0
[24]; 125 g ai/ha
  Plant response rating, Barnyardgrass: 0
[24]; 250 g ai/ha
  Plant response rating, Barnyardgrass: 0

— patent publication US9695155B2, “Herbicidal substituted pyrimidinyloxy benzene compounds” (E. I. DU PONT DE NEMOURS AND COMPANY, priority 2013, dated 2017)
